Assay results: patent US7897779B2, “Ionic UV-A sunscreens and compositions containing them” (DSM IP Assets B.V., priority 2004, dated 2011)

Legend:
[1] = prior-art water-soluble UV-A sunscreen (EP-A 669 323, DE 33 24 735); cited from earlier work
[2] = UV absorption spectrum (absorption maximum and extinction E); assay type: physicochemical; set-up: extinction E: unit not given beside the values; details: for extinction E: at absorption maximum
Text: This salt was recrystallized from DMF.
The reaction mixture was concentrated at the rotavap, followed by HV drying. The residue is washed with cyclohexane and then with ethylacetate followed by recrystallization from ethanol.

physchem = details: water
[3] = Photostability according to Berset et al., Internat. J. Cosmetic Science 18: 167-177 (1996); assay type: physicochemical; details: solution in water/glycerol=7:3 as liquid phase
Description: 209-210° C. […] One equivalent of aq. […] M.p. […] .

In the case of `CC1(C)C2CCC1(CS(=O)(=O)O)C(=O)C2=Cc1ccc(C=C2C(=O)C3(CS(=O)(=O)O)CCC2C3(C)C)cc1` [terephthalylidene dicamphorsulfonic acid], the absorption maximum [1] is listed as 345 nm and the “extinction value E” value [1] is listed as 866.
Compound `CC1=CC(=C(C#N)C#N)C=C(C)N1CCC[N+](C)(C)CCOCCOCCO.[I-]` [Example 3] has a UV absorption maximum ([2]; UV (ethanol)) of 362 nm.
For `CC1=CC(=C(C#N)C#N)C=C(C)N1CCOCC[n+]1ccccc1` [Example 4, 1-{2-[2-(4-dicyanomethylene-2,6-dimethyl-4H-pyridin-1-yl)-ethoxy]-ethyl}-pyridinium chloride], the UV absorption maximum ([2]; UV (water)) was 352 nm, the “extinction E” value ([2]; UV (water)) was 1149 and the solubility (physchem) was greater than 200 mg/mL.
With `CC1=CC(=C(C#N)C#N)C=C(C)N1c1cccc(OCCCS(=O)(=O)[O-])c1.[Na+]` [Example 5, 3-[3-(4-dicyanomethylene-2,6-dimethyl-4H-pyridin-1-yl)-phenoxy]propane-1-sulfonic acid] the UV absorption maximum ([2]; UV (water)) was 352 nm and the “extinction E” value ([2]; UV (water)) was 1150.
For `CC1=CC(=C(C#N)C#N)C=C(C)N1CCOCCOP(=O)([O-])O.[Na+]` [Example 1, 4-dicyanomethylene-2,6-dimethyl-1,4-dihydropyridine-N-(ethyloxy-ethyloxyphosphate estermonosodium salt)], the UV absorption maximum ([2]; UV (water)) was 350 nm, the “extinction E” value ([2]; UV (water)) was 979 and the solubility (physchem) was 168 mg/mL. For the same compound, the photostability [3] was “photostable”.
In the case of `CC1=CC(=C(C#N)C#N)C=C(C)N1CCOS(=O)(=O)[O-].[Na+]` [Example 2, 4-dicyanomethylene-2,6-dimethyl-1,4-dihydropyridine-N-(ethyloxysulfate estermonosodium salt)], the UV absorption maximum ([2]; UV (water)) is reported as 352 nm, the “extinction E” value ([2]; UV (water)) is reported as 1261 and the photostability [3] is reported as “photostable”.
In the case of `O=S(=O)([O-])c1cc(S(=O)(=O)O)cc2[nH]c(-c3ccc(-c4nc5c(S(=O)(=O)[O-])cc(S(=O)(=O)O)cc5[nH]4)cc3)nc12.[Na+].[Na+]` [disodium phenyldibenzimidazole tetrasulfonate], the absorption maximum [1] is given as 335 nm and the “extinction value E” value [1] is given as 745.
